Data: ChEMBL document CHEMBL1140679, “The identification of potent, selective, and bioavailable cathepsin S inhibitors” (Bioorg Med Chem Lett, 2007)

How the values were obtained:
[1] = Inhibition of antigen presentation in mouse B cells; type: functional, cell-based
Procathepsin L [2] = molecular target: T1, Procathepsin L (Rattus norvegicus, UniProt P07154); experiment: Inhibition of rat liver lysosomal cathepsin L
T1 sequence (P07154 whole entry): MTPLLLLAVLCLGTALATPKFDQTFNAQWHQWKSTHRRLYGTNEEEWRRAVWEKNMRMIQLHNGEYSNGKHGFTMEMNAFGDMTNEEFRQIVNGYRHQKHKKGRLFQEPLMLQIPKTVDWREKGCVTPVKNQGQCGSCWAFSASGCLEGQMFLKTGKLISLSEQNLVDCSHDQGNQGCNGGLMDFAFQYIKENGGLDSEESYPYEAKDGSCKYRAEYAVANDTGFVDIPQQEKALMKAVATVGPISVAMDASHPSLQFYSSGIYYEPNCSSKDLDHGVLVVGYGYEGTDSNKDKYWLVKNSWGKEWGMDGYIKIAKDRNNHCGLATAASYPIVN

Cathepsin S [3] = molecular target: Cathepsin S (Mus musculus, UniProt O70370); experiment: Inhibition of mouse recombinant cathepsin S
Cathepsin S [4] = molecular target: Cathepsin S (Homo sapiens, UniProt P25774); experiment: Inhibition of human cathepsin S
Mus musculus [5] = experiment: AUC (0 to 24 hrs) in C57BL/6 mouse at 50 mg/kg, po; type: ADME, organism-based, Plasma; design: time < 24 hr, dose 50 mg/kg, route oral; conditions: in vivo
Cathepsin K [6] = molecular target: T2, Cathepsin K (Mus musculus, UniProt P55097); experiment: Inhibition of mouse recombinant cathepsin K
T2 sequence (P55097 whole entry): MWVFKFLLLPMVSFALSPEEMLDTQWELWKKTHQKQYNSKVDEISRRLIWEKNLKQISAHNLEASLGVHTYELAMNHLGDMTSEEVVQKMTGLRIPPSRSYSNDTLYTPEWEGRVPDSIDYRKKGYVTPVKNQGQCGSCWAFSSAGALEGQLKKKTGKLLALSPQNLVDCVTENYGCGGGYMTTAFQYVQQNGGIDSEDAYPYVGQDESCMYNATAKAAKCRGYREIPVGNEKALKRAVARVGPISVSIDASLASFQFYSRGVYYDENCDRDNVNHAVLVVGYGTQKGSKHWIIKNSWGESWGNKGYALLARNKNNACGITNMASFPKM

[7] = Half life in Sprague-Dawley rat; type: ADME, organism-based; conditions: in vivo
Hepatocyte = experiment: Metabolic stability in rat hepatocytes after 2 hrs; type: ADME, cell-based
Cathepsin B [8] = molecular target: Cathepsin B (Mus musculus, UniProt P10605); experiment: Inhibition of mouse recombinant cathepsin B
Cathepsin B [9] = molecular target: Cathepsin B (Rattus norvegicus, UniProt P00787); experiment: Inhibition of rat liver lysosomal cathepsin B
Cathepsin B [10] = molecular target: Cathepsin B (Homo sapiens, UniProt P07858); experiment: Inhibition of human cathepsin B
Cathepsin S [11] = molecular target: Cathepsin S (Rattus norvegicus, UniProt Q02765); experiment: Inhibition of rat spleen cathepsin S; type: tissue-based
[12] = Cmax in Sprague-Dawley rat; type: ADME, organism-based; conditions: in vivo
Procathepsin L [13] = molecular target: T3, Procathepsin L (Mus musculus, UniProt P06797); experiment: Inhibition of mouse recombinant cathepsin L
T3 sequence (P06797 whole entry): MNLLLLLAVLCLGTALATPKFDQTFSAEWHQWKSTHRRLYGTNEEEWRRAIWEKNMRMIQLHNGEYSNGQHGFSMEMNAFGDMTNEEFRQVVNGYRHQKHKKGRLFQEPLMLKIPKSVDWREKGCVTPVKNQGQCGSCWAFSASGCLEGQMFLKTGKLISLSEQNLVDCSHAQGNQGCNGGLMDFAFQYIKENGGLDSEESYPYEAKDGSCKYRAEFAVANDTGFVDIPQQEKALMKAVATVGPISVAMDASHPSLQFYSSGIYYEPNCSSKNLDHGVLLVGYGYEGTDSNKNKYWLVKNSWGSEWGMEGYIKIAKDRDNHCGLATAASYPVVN

[14] = Bioavailability in Sprague-Dawley rat; type: ADME, organism-based; conditions: in vivo
Mus musculus [15] = experiment: AUC (0 to 24 hrs) in C57BL/6 mouse at 5 mg/kg, po; type: ADME, organism-based, Plasma; design: time < 24 hr, dose 5 mg/kg, route oral; conditions: in vivo
Cathepsin K [16] = molecular target: T4, Cathepsin K (Homo sapiens, UniProt P43235); experiment: Inhibition of human cathepsin K
T4 sequence (P43235 whole entry): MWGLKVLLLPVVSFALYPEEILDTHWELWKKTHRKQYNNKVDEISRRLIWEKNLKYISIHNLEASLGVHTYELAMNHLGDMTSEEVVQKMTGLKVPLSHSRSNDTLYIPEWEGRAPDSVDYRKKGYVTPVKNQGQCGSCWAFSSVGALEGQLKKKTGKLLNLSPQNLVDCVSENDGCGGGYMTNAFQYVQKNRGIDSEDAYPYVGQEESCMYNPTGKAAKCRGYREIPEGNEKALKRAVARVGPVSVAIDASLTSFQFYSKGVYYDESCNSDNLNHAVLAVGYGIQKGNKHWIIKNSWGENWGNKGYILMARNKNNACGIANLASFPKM

Procathepsin L [17] = molecular target: Procathepsin L (Homo sapiens, UniProt P07711); experiment: Inhibition of human cathepsin L
Mus musculus [18] = experiment: AUC (0 to 24 hrs) in C57BL/6 mouse assessed as (R)-N-(1-cyanocyclopropyl)-3-(methylsulfonyl)-2-((S)-2,2,2-trifluoro-1-(4-fluorophenyl)ethylamino)propanamide levels at 150 mg/kg, po; type: ADME, organism-based, Plasma; design: time < 24 hr, dose 150 mg/kg, route oral; conditions: in vivo
Mus musculus [19] = species: Mus musculus; experiment: AUC (0 to 24 hrs) in C57BL/6 mouse assessed as (R)-N-(1-cyanocyclopropyl)-3-(methylsulfonyl)-2-((S)-2,2,2-trifluoro-1-(4-fluorophenyl)ethylamino)propanamide levels at 0.05 w/w % after 5 days; type: ADME, organism-based, Plasma; design: time < 24 hr; conditions: in vivo
Mus musculus [20] = species: Mus musculus; experiment: AUC (0 to 24 hrs) in C57BL/6 mouse assessed as (R)-N-(1-cyanocyclopropyl)-3-(methylsulfonyl)-2-((S)-2,2,2-trifluoro-1-(4-fluorophenyl)ethylamino)propanamide levels at 0.01 w/w % after 5 days; type: ADME, organism-based, Plasma; design: time < 24 hr; conditions: in vivo
Mus musculus [21] = experiment: AUC (0 to 24 hrs) in C57BL/6 mouse assessed as (R)-N-(1-cyanocyclopropyl)-3-(methylsulfonyl)-2-((S)-2,2,2-trifluoro-1-(4-fluorophenyl)ethylamino)propanamide levels at 10 mg/kg, po; type: ADME, organism-based, Plasma; design: time < 24 hr, dose 10 mg/kg, route oral; conditions: in vivo
Mus musculus [22] = species: Mus musculus; experiment: Drug level in C57BL/6 mouse blood at 0.05 w/w %; type: ADME, organism-based; conditions: in vivo, read-out: Drug uptake
Mus musculus [23] = experiment: AUC (0 to 24 hrs) in C57BL/6 mouse assessed as (R)-N-(1-cyanocyclopropyl)-3-(methylsulfonyl)-2-((S)-2,2,2-trifluoro-1-(4-fluorophenyl)ethylamino)propanamide levels at 50 mg/kg, po; type: ADME, organism-based, Plasma; design: time < 24 hr, dose 50 mg/kg, route oral; conditions: in vivo
Mus musculus [24] = experiment: Increase in p10 fragment accumulation in C57BL/6 mouse at 3 mg/kg/day for 5 days relative to control; type: functional
Mus musculus [25] = species: Mus musculus; experiment: AUC (0 to 24 hrs) in C57BL/6 mouse assessed as (R)-N-(1-cyanocyclopropyl)-3-(methylsulfonyl)-2-((S)-2,2,2-trifluoro-1-(4-fluorophenyl)ethylamino)propanamide levels at 0.25 w/w % after 5 days; type: ADME, organism-based, Plasma; design: time < 24 hr; conditions: in vivo
Mus musculus [26] = species: Mus musculus; experiment: Drug level in C57BL/6 mouse blood at 0.25 w/w %; type: ADME, organism-based; conditions: in vivo, read-out: Drug uptake
Mus musculus [27] = species: Mus musculus; experiment: Drug level in C57BL/6 mouse blood at 0.01 w/w %; type: ADME, organism-based; conditions: in vivo, read-out: Drug uptake

Chain of Procathepsin L (Homo sapiens, UniProt P07711) (P07711 whole entry): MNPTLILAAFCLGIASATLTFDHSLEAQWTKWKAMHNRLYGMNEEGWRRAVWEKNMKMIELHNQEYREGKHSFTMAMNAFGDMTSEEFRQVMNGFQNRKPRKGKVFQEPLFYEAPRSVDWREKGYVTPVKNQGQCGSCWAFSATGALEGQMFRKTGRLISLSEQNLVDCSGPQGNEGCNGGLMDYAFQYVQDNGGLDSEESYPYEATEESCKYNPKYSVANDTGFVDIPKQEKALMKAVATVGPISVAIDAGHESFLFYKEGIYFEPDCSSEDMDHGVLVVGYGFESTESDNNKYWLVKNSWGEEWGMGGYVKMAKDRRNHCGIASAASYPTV
Chain of Cathepsin B (Mus musculus, UniProt P10605) (P10605 whole entry): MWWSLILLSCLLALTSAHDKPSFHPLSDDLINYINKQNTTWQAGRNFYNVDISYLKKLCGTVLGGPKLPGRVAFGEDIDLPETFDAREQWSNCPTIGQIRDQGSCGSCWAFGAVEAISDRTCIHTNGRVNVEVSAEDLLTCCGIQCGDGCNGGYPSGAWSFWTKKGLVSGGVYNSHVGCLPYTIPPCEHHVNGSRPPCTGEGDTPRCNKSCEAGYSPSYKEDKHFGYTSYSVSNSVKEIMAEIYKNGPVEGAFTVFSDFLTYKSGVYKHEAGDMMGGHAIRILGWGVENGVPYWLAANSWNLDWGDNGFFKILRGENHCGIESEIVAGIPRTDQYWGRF
Chain of Cathepsin B (Rattus norvegicus, UniProt P00787) (P00787 whole entry): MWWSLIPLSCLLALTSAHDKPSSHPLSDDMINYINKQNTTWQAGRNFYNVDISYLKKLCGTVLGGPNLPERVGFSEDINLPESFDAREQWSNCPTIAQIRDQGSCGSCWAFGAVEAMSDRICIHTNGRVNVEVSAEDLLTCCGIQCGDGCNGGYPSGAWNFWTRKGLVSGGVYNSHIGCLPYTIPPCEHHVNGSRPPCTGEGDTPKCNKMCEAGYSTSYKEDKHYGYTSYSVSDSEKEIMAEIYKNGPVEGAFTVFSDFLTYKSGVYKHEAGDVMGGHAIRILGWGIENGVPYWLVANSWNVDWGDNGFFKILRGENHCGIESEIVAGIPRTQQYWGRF
Chain of Cathepsin S (Homo sapiens, UniProt P25774) (P25774 whole entry): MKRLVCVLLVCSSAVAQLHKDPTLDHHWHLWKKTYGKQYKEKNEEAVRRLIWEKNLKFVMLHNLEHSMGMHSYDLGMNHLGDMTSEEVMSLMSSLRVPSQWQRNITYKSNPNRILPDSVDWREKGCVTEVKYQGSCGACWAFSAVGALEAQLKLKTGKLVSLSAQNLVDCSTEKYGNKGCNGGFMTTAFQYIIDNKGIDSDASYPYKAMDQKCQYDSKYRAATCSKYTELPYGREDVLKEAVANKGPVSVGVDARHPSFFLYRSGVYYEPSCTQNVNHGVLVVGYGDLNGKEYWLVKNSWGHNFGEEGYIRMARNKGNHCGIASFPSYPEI
Chain of Cathepsin S (Rattus norvegicus, UniProt Q02765) (Q02765 whole entry): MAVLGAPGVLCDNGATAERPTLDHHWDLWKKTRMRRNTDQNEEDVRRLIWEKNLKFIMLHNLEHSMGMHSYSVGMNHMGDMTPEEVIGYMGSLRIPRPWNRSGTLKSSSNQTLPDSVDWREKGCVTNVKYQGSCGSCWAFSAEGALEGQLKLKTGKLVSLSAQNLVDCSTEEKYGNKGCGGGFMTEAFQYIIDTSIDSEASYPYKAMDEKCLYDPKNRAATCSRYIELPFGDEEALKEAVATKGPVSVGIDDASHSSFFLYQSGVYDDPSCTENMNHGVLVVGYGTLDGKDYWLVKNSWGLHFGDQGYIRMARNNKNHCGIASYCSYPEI
Chain of Cathepsin S (Mus musculus, UniProt O70370) (O70370 whole entry): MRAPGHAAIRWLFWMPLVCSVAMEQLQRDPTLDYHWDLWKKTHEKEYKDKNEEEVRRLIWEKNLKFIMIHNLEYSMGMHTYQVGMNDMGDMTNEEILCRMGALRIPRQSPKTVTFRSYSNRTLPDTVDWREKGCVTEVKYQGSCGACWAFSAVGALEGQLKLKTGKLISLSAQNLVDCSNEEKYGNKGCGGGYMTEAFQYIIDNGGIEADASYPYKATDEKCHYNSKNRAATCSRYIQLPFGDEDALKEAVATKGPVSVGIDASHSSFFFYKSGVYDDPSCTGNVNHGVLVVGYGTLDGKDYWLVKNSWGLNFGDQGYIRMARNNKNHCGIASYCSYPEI

CS(=O)(=O)C[C@H](N[C@@H](c1ccc(F)cc1)C(F)(F)F)C(=O)NC1(C#N)CC1
IC50 [1]: 0.044 µM | IC50 (Procathepsin L [2]): 3.16 µM | IC50 (Cathepsin S [3]): 0.0006 µM | IC50 (Cathepsin S [4]): 0.0018 µM | AUC (Mus musculus [5]): 111 µM | IC50 (Cathepsin K [6]): 1.65 µM | half-life [7]: 5.2 h | Stability (Hepatocyte): Stable | IC50 (Cathepsin B [8]): 0.233 µM | IC50 (Cathepsin B [9]): 0.319 µM | IC50 (Cathepsin B [10]): 1.1 µM | IC50 (Cathepsin S [11]): 0.426 µM | Cmax [12]: 6.3 µM | IC50 (Procathepsin L [13]): 3.04 µM | bioavailability [14]: 48% | AUC (Mus musculus [15]): 43 µM | IC50 (Cathepsin K [16]): 0.405 µM | IC50 (Procathepsin L [17]): 1.01 µM

C[S+]([O-])C[C@H](N[C@@H](c1ccc(F)cc1)C(F)(F)F)C(=O)NC1(C#N)CC1 (some centres undefined)
IC50 (Procathepsin L [2]): > 10 µM | IC50 (Cathepsin S [3]): 0.096 µM | IC50 (Cathepsin S [4]): 0.729 µM | IC50 (Cathepsin K [6]): 5.84 µM | AUC (Mus musculus [18]): 750 µM | AUC (Mus musculus [19]): 31 µM | AUC (Mus musculus [20]): 7 µM | IC50 (Cathepsin B [8]): 6.7 µM | IC50 (Cathepsin B [9]): > 10 µM | AUC (Mus musculus [21]): 63 µM | IC50 (Cathepsin B [10]): 9.72 µM | concentration (Mus musculus [22]): 6 µM | IC50 (Cathepsin S [11]): > 10 µM | AUC (Mus musculus [23]): 274 µM | Activity (Mus musculus [24]): 24 | IC50 (Procathepsin L [13]): > 10 µM | AUC (Mus musculus [25]): 87 µM | concentration (Mus musculus [26]): 16 µM | IC50 (Cathepsin K [16]): 1.12 µM | concentration (Mus musculus [27]): 1 µM | IC50 (Procathepsin L [17]): > 10 µM
